Test results from PubChem BioAssay AID2060902 (Molecular Pharmacology Branch, DTP, NCI, 2025).
pIC50: −log10 of the molar value.

System: 485368-065-R3-J5-PDC spheroids with HUVEC/MSC, viability
Experiment: Anticancer human tumor 485368-065-R3-J5-PDC patient-derived pancreatic carcinoma cell line growth inhibition [RAS]
Settings: for pIC50: curve of first compound; for viability, T/C: stronger effect = lower value
Outline: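 Tumour cells grown as complex spheroids with HUVEC endothelial cells and mesenchymal stem cells, treated with RAS pathway inhibitor combinations. Each agent spans half-log steps from near clinical Cmax, or 10 microM where Cmax is unknown.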
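Also: spheroids exposed to agents for seven days before readout.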

CC(C)NCC(C(=O)N1CCN(c2ncnc3c2C(C)CC3O)CC1)c1ccc(Cl)cc1 (centres undefined) + C#Cc1c(F)ccc2cc(O)cc(-c3ncc4c(N5CC6CCC(C5)N6)nc(OCC56CCCN5CC(F)C6)nc4c3F)c12
pIC50 (second compound 0.0316 µM): < 5.00 | pIC50 (second compound 0.1 µM): < 5.00 | pIC50 (second compound 0.316 µM): < 5.00 | pIC50 (second compound 1 µM): 5.08 | pIC50 (second compound 3.16 µM): 5.36 | pIC50 (second compound 10 µM): > 7.50 | viability, T/C (second compound 0.0316 µM, first compound 0.0316 µM): 116% | viability, T/C (second compound 0.0316 µM, first compound 0.1 µM): 98.7% | viability, T/C (second compound 0.0316 µM, first compound 0.316 µM): 89.3% | viability, T/C (second compound 0.0316 µM, first compound 1 µM): 93.5% | viability, T/C (second compound 0.0316 µM, first compound 3.16 µM): 77.1% | viability, T/C (second compound 0.0316 µM, first compound 10 µM): 57.8% | viability, T/C (second compound 0.1 µM, first compound 0.0316 µM): 101% | viability, T/C (second compound 0.1 µM, first compound 0.1 µM): 88.8% | viability, T/C (second compound 0.1 µM, first compound 0.316 µM): 90.3% | viability, T/C (second compound 0.1 µM, first compound 1 µM): 83.3% | viability, T/C (second compound 0.1 µM, first compound 3.16 µM): 77.2% | viability, T/C (second compound 0.1 µM, first compound 10 µM): 57.9% | viability, T/C (second compound 0.316 µM, first compound 0.0316 µM): 99% | viability, T/C (second compound 0.316 µM, first compound 0.1 µM): 101% | viability, T/C (second compound 0.316 µM, first compound 0.316 µM): 93.9% | viability, T/C (second compound 0.316 µM, first compound 1 µM): 87.9% | viability, T/C (second compound 0.316 µM, first compound 3.16 µM): 71.2% | viability, T/C (second compound 0.316 µM, first compound 10 µM): 55% | viability, T/C (second compound 1 µM, first compound 0.0316 µM): 104% | viability, T/C (second compound 1 µM, first compound 0.1 µM): 106% | viability, T/C (second compound 1 µM, first compound 0.316 µM): 93.5% | viability, T/C (second compound 1 µM, first compound 1 µM): 74.9% | viability, T/C (second compound 1 µM, first compound 3.16 µM): 61.9% | viability, T/C (second compound 1 µM, first compound 10 µM): 47% | viability, T/C (second compound 3.16 µM, first compound 0.0316 µM): 73.7% | viability, T/C (second compound 3.16 µM, first compound 0.1 µM): 74% | viability, T/C (second compound 3.16 µM, first compound 0.316 µM): 75.2% | viability, T/C (second compound 3.16 µM, first compound 1 µM): 70.8% | viability, T/C (second compound 3.16 µM, first compound 3.16 µM): 54.2% | viability, T/C (second compound 3.16 µM, first compound 10 µM): 38.9% | viability, T/C (second compound 10 µM, first compound 0.0316 µM): 44.1% | viability, T/C (second compound 10 µM, first compound 0.1 µM): 39.4% | viability, T/C (second compound 10 µM, first compound 0.316 µM): 40.3% | viability, T/C (second compound 10 µM, first compound 1 µM): 35.4% | viability, T/C (second compound 10 µM, first compound 3.16 µM): 35.3% | viability, T/C (second compound 10 µM, first compound 10 µM): 26.9%

CCN1CCN(Cc2ccc(Nc3ncc(F)c(-c4cc(F)c5nc(C)n(C(C)C)c5c4)n3)nc2)CC1 + CCn1c(-c2cc(N3CCN(C)CC3)cnc2C(C)OC)c2c3cc(ccc31)-c1csc(n1)CC(NC(=O)C1CC1C)C(=O)N1CCCC(N1)C(=O)OCC(C)(C)C2
pIC50 (second compound 0.000949 µM): > 8.50 | pIC50 (second compound 0.003 µM): > 8.50 | pIC50 (second compound 0.00949 µM): > 8.50 | pIC50 (second compound 0.03 µM): > 8.50 | pIC50 (second compound 0.0949 µM): > 8.50 | pIC50 (second compound 0.3 µM): > 8.50 | viability, T/C (second compound 0.000949 µM, first compound 0.00316 µM): 31.4% | viability, T/C (second compound 0.000949 µM, first compound 0.01 µM): 27.4% | viability, T/C (second compound 0.000949 µM, first compound 0.0316 µM): 31.6% | viability, T/C (second compound 0.000949 µM, first compound 0.1 µM): 22.1% | viability, T/C (second compound 0.000949 µM, first compound 0.316 µM): 28.7% | viability, T/C (second compound 0.000949 µM, first compound 1 µM): 27.1% | viability, T/C (second compound 0.003 µM, first compound 0.00316 µM): 22.1% | viability, T/C (second compound 0.003 µM, first compound 0.01 µM): 21.1% | viability, T/C (second compound 0.003 µM, first compound 0.0316 µM): 16.8% | viability, T/C (second compound 0.003 µM, first compound 0.1 µM): 15.4% | viability, T/C (second compound 0.003 µM, first compound 0.316 µM): 18.4% | viability, T/C (second compound 0.003 µM, first compound 1 µM): 22.4% | viability, T/C (second compound 0.00949 µM, first compound 0.00316 µM): 16.1% | viability, T/C (second compound 0.00949 µM, first compound 0.01 µM): 16.4% | viability, T/C (second compound 0.00949 µM, first compound 0.0316 µM): 11% | viability, T/C (second compound 0.00949 µM, first compound 0.1 µM): 15.1% | viability, T/C (second compound 0.00949 µM, first compound 0.316 µM): 14.2% | viability, T/C (second compound 0.00949 µM, first compound 1 µM): 18.3% | viability, T/C (second compound 0.03 µM, first compound 0.00316 µM): 11.1% | viability, T/C (second compound 0.03 µM, first compound 0.01 µM): 11.8% | viability, T/C (second compound 0.03 µM, first compound 0.0316 µM): 9.68% | viability, T/C (second compound 0.03 µM, first compound 0.1 µM): 13.2% | viability, T/C (second compound 0.03 µM, first compound 0.316 µM): 13.1% | viability, T/C (second compound 0.03 µM, first compound 1 µM): 16.5% | viability, T/C (second compound 0.0949 µM, first compound 0.00316 µM): 8.73% | viability, T/C (second compound 0.0949 µM, first compound 0.01 µM): 10.7% | viability, T/C (second compound 0.0949 µM, first compound 0.0316 µM): 9.07% | viability, T/C (second compound 0.0949 µM, first compound 0.1 µM): 8.91% | viability, T/C (second compound 0.0949 µM, first compound 0.316 µM): 12.2% | viability, T/C (second compound 0.0949 µM, first compound 1 µM): 15.6% | viability, T/C (second compound 0.3 µM, first compound 0.00316 µM): 8.74% | viability, T/C (second compound 0.3 µM, first compound 0.01 µM): 8.83% | viability, T/C (second compound 0.3 µM, first compound 0.0316 µM): 7.48% | viability, T/C (second compound 0.3 µM, first compound 0.1 µM): 9.84% | viability, T/C (second compound 0.3 µM, first compound 0.316 µM): 10.8% | viability, T/C (second compound 0.3 µM, first compound 1 µM): 15.2%
